In US9572862B2, “Methods for promoting lipolysis and oxidation in liver and adipose tissue using catestatin” (The Regents of the University of California, priority 2012, dated 2017):
“Also recorded” adds a separate entry of the source. No end group written: not given here.

Columns and labels:
[1] = test system: HFD-fed CST-KO mice; assay: CST supplementation in HFD-fed CST-KO mice; type: in vivo
Description: FIG. 12. Metabolic phenotypes in HFD-fed CST-KO mice. (A) CST-KO mice eat more 60% HFD than WT. (B) CST-KO mice gained more weight than WT. (C) Heightened glucose resistance at baseline in CST-KO mice compared to WT mice. […] Figures in parentheses indicate number of animals.

[2] = test system: STAT3 and AMPK phosphorylation; assay: Stat3 and AMPK signaling in adipose explants from Ob/Ob mice; type: cell-based; details: CST in vivo, leptin 1 μM ex vivo 30 min
Method: (§1) FIG. 9. Stat3 and AMPK signaling in the adipose tissue explants from DIO and Ob/Ob mice treated with saline, CST (in vivo) and leptin (ex vivo). Explants from DIO mice (A&B) and Ob/Ob mice (C&D) were incubated with saline or leptin (1 μM) for 30 min, homogenized and immunoblotted for phospho- and total Stat3 (A&C) as well as phospho- and total AMPK signals (B&D). Results are presented as the ratio of signal strength of phospho-over total.
(§2) Adipose tissue explants were prepared as described (42). Epididymal fat pads from 12 hr fasted WT, Chga-KO, DIO and Ob/Ob mice with or without CST treatment were collected in Kreb-Ringer-phosphate (KRP) buffer containing 10 mM Hepes and 0.5% BSA. Tissues were minced to 1-2 mm size and treated with 100 nM CST, 1 μM leptin, or saline for 30 min (for signaling analysis) or 3 hr (for lipolysis and β-oxidation assays). Explants were also treated acutely with CST, leptin, a combination, or saline. At the end, incubation media were saved for analysis of glycerol and fatty acid release. Explants were washed prior to homogenization for immunoblotting and analysis of fatty acid oxidation.
(§3) Adipose tissue explants after treatments ex vivo and tissues from mice treated in vivo were homogenized in a buffer containing phosphatase and protease inhibitors (20 mM Tris/HCl (pH 7.5), 250 mM sucrose, 2 mM EDTA, 2 mM EGTA, 2 mM Na3VO4, 10 mM NaF, 2 mM Na4P2O7, 1 mM phenylmethylsulfonyl fluoride, 20 μg/ml leupeptin, 10 μg/ml aprotinin, and 1 μM LR-microcystin) as described (38,44). Homogenates were subjected to SDS-PAGE and immunoblotted. Primary antibodies for AMPK and Stat3 were from Cell Signaling Technology (Beverly, Mass.). The chemiluminescence kit was from Pierce (Rockford, Ill.).

[3] = Insulin secretion in culture; type: cell-based
[4] = test system: 3T3-L1 adipocytes; assay: cAMP production in 3T3-L1 adipocytes; type: cell-based; details: CST 100 nM, ISO 10 μM, 10 min
[5] = test system: adipose tissue explants from DIO mice; assay: Lipolysis and fatty acid oxidation in adipose explants of DIO mice; type: cell-based
Method: FIG. 8. Lipolysis and fatty acid oxidation in the adipose tissue explants of DIO and Ob/Ob mice after treatment with saline or CST for 16 days. Explants were incubated with saline or leptin (1 μM) for 3 hr and the concentrations of glycerol (A&C) and NEFA (B&D) released into the media from DIO (A&B) and Ob/Ob (C&D) explants were determined as a measure of lipolysis. Homogenates of the explants from DIO (E) and Ob/Ob […] were used to determine their capacity for oxidation of U-^14C-palmitate in response to the treatment with saline, CST, leptin and CST+leptin. The ^14CO2 released was captured and counted as the measure of fatty acid oxidation.
as §2
Oxidation of radiolabeled palmitate in the homogenates of adipose tissue explants as described previously (45). For oxidation studies of cultured cells, HepG2 (hepatocytes) and 3T3-L1 preadipocytes were obtained from ATCC and cultured following supplier's protocol. Confluent 3T3-L1 cultures were differentiated into adipocytes by treating with a cocktail of dexamethasone (100 nM), IBMX ([…]) and insulin (100 nM) for 10 days. Media were then switched to serum-free DMEM with 1% BSA. Hepatocytes were assayed for lipogenesis and fat oxidation in response to CST treatment. Serum-free cultures were treated with CST (100 nM) for 24 hr followed by a 2 hr incubation with U^14C-palmitate (0.5 μCi/ml). Fatty acid oxidation in cells was determined by modifying a published method (46). Specifically, the culture media in 24-well plates were acidified with 10% HClO4 after incubation with the labeled fatty acid and immediately covered with a thick filter paper sheet (cut to size) soaked in 2 N NaOH and placed underneath the plastic lid. The whole plate was sealed with parafilm. After further incubation for 2 hr, the filter paper sheet was marked as circles around the rim of the wells and then the circles were excised. The filter discs were counted to determine the amount of ^14CO2 absorbed in the papers. Cells in the culture wells were lysed in 1 N NaOH and protein content was assayed using Folin's reagent (BioRad, Hercules, Calif.).

[6] = test system: STAT3 and AMPK phosphorylation; assay: Stat3 and AMPK signaling in adipose explants from DIO mice; type: cell-based; details: CST in vivo, leptin 1 μM ex vivo 30 min
Method: as §1, §2, §3

[7] = test system: PC-12 neuroendocrine cells; assay: cAMP production in PC-12 cells; type: cell-based
[8] = test system: Chga-KO mice; assay: Incorporation and oxidation of 14C-palmitate in vivo; details: for 14C-palmitate incorporation into lipids: CST 12 days
Method: FIG. 3. Effects of CST on lipogenesis from fatty acid and fatty acid oxidation in hepatic and adipose tissues. Incorporation of ^14C-palmitate into lipids in adipose (A) and liver (B) in Chga-KO mice after saline or CST treatment (5 μg/g BW, i.p./day) for 12 days. Partial oxidation to acid soluble metabolites (ASM) in adipose tissue (C) and liver (D). Complete oxidation to ^14CO2 in hepatocytes (HepG2) and adipocytes (3T3-L1) after saline or CST treatment (E).
Mice were injected with saline or CST (5 μg/g BW, i.p.; […]) for 12 days. One hr after the final injection, U-^14C-palmitate (5 μCi, 100 μl of 0.2 mM, i.p.) was injected and mice were sacrificed 3 hr later. Liver and adipose tissues (˜100 mg) were homogenized in 0.8 ml 3.5 N perchloric acid and extracted by vortexing in 3 ml of a mixture of methanol and chloroform (2:1, v/v). To the final homogenate, 1.2 ml of 3.5 N perchloric acid was added. The mixture was vortexed and centrifuged. The lower (chloroform) layer contained all the lipids derived from the incorporation of ^14C-palmitate, whereas the upper acidic layer contained partially oxidized acid-soluble metabolites (ASM) of ^14C-palmitate. The lower layer was further fractionated by thin layer chromatography on silica gel plates using hexane: diethyl ether: acetic acid (79:20:1, v/v/v) mixture as the developing solvent. Lipogenesis from palmitate was determined based on the radioactivity of the free palmitic acid band compared to other lipids (phospholipids, triglycerides, diacylglycerol, etc.) on the TLC plate. Complete oxidation of ^14C-palmitate was measured in cultured cells but not in mice.

[9] = CST in vivo 16 days, leptin 1 μM ex vivo 3 hr

SSMKLSFRARAYGFRGPGPQL [CST]
basal plasma insulin level [1]: decreased; also recorded: reduced hyperinsulinemia | insulin sensitivity (IP-ITT) ([1]; CST 5 μg/g BW): improved insulin sensitivity; also recorded: reversed glucose resistance to glucose tolerance | STAT3 phosphorylation [2]: CST stimulation of STAT3 phosphorylation | insulin secretion in culture [3]: Stimulated Insulin Secretion in Culture in a Glucose-Independent Manner | cAMP production [4]: not by CST | palmitate oxidation [5]: neither CST nor leptin alone stimulated oxidation | NEFA release in the media [5, 9]: not significant | glycerol release in the media [5, 9]: can release some glycerol in the media | AMPK phosphorylation [6]: not AMPK phosphorylation | STAT3 phosphorylation [6]: stimulated only STAT3 phosphorylation | basal or isoproterenol-induced cAMP levels [7]: did not modulate | cAMP production ([7]; CST 100 nM, ISO 10 μM, 10 min): not by CST | palmitate oxidation into ASMs ([8]; adipose tissue): stimulated | 14C-palmitate incorporation into lipids ([8]; adipose tissue): decreased | palmitate oxidation into ASMs ([8]; liver): stimulated | 14C-palmitate incorporation into lipids ([8]; liver): enhanced
